Data reported in US20060154910A1, “Use of steroids to treat ocular disorders” (priority 2003, published 2006).

Tests used:
[1] = tested on: patients with documented glucocorticoid induced ocular hypertension; test: Topical anecortave acetate in patients with glucocorticoid induced ocular hypertension (IOP); type: in vivo, human; details: patients (n=15), 1% eye drops topically three times per day for up to 12 weeks, glucocorticoid medication continued; reduced from 29 mm Hg; FIG. 1
Method: Patients (η=15) with documented glucocorticoid induced ocular hypertension were treated topically with 1% anecortave acetate eye drips three times per day for up to 12 weeks. The patients continued to receive their glucocorticoid medication.

[2] = tested on: rabbits; test: Rabbit dexamethasone acetate induced IOP elevation, topical ocular anecortave acetate; type: in vivo; details: for IOP change versus vehicle treated group: topical ocular three times a day for 2 weeks, rabbits on weekly subTenon's dexamethasone acetate 1 mg/kg, FIG. 2
Method: Three groups of rabbits received weekly subTenon's injections of dexamnethasone acetate (1 mg/kg) for 4 weeks. After two weeks, the IOPs of all three groups measured approximately […]. The rabbits were then treated with vehicle, 0.1% anecortave acetate, a 1% anecortave acetate by topical ocular dosing three times a day for the remaining 2 weeks. The IOP continued to increase in the vehicle treated group.

SMILES | IOP after anecortave acetate treatment [1] | IOP change versus vehicle treated group ([2]; 0.1% anecortave acetate) | IOP change versus vehicle treated group ([2]; 1% anecortave acetate) | IOP after two weeks of glucocorticoid injections ([2]; rabbits, weekly subTenon's injections 1 mg/kg, after two weeks, all three groups)
CC(=O)OCC(=O)[C@@]1(O)CC[C@H]2[C@@H]3CCC4=CC(=O)CC[C@]4(C)C3=CC[C@@]21C [anecortave acetate, 4,9(11)-pregnadien-17α,21-diol-3,20dione-21-acetate] | 19-22 mm Hg | significantly lowered | significantly lowered | 
CC(=O)OCC(=O)[C@@]1(O)[C@H](C)C[C@H]2[C@@H]3CCC4=CC(=O)C=C[C@]4(C)[C@@]3(F)[C@@H](O)C[C@@]21C [dexamnethasone acetate, dexamethasone acetate, reference compound] |  |  |  | approximately 5 mm Hg
